Experimental data reported in patent US4902712A, “Fluoroalkane derivatives” (Imperial Chemical Industries plc, priority 1985, dated 1990).

How the values were obtained:
TXA2 [1] = experiment: TXA2 antagonist properties (general statement, standard tests); details: in words
Description: (§1) As stated earlier, the compound of formula I is an antagonist of one or more of the actions of TXA2, for example certain of its actions on blood platelets, the vasculature and/or the lung.

TXA2 [2] = experiment: Test (a): rabbit aortal strip model (Piper and Vane); type: cell-based; details: agonist TXA2 or U46619
Description: as §1
(a) The rabbit aortal strip model devised by Piper and Vane (Nature, 1969, 223, 29-35) using as agonist a freshly prepared sample of TXA2, generated by addition of arachidonic acid (25 μg) to citrated, platelet rich rabbit plasma (250 μl) and allowing the mixture to aggregate fully over 90 seconds before use; alternatively the TXA2 mimetic agent known as U46619 (described by R. L. Jones et alia in "Chemistry, Biochemistry and Pharmacological Activity of Prostanoids" edited by S. M. Roberts and F. Scheinmann, at page 211; Pergamon Press, 1979) may be used as the agonist;

[3] = biological target: T1, U46619 stimulated platelet aggregation (Homo sapiens, UniProt P21731); experiment: Test (b): blood platelet aggregation test (Born), human citrated platelet-rich plasma; type: cell-based; details: averaged over several concentrations
T1 construct: aggregating human, citrated, platelet-rich plasma; endogenous in cells; host or cells: human platelets in citrated platelet-rich plasma
T1 sequence (P21731 1-343): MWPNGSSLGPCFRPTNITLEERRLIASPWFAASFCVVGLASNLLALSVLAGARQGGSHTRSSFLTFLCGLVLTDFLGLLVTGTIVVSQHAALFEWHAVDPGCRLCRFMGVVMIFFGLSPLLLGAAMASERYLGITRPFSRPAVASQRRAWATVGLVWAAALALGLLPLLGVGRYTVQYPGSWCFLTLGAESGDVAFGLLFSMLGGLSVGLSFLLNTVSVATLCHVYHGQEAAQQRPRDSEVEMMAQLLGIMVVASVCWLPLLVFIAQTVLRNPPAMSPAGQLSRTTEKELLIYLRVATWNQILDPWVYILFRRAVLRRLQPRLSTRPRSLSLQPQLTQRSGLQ
Description: (b) a blood platelet aggregation test based on that described by Born (Nature, 1962, 194, 927-929) and involving:
(i) aggregating human, citrated, platelet-rich plasma by addition of the TXA2 mimetic agent U46619 so that a dose-response curve is generated;
(ii) generating a dose-response curve for U46619 stimulated platelet aggregation in the presence of increasing amounts of test compound (generally in the range 10^-5 M to 10^-10 M); and
(iii) calculating a KB value indicating potency of TXA2 antagonism for the test compound, averaged over several concentrations, from the calculated 50% response value for U46619 aggregation in the presence and absence of test compound; and […]

[4] = test system: U46619 induced bronchoconstriction; experiment: Test (c): bronchoconstriction test, Konzett-Rossler anaesthetised guinea-pig model; type: in vivo; details: 2 hours after oral dosing at 0.005 mg/kg; ratio of U46619 concentration required to cause 50% bronchoconstriction in presence and absence of test compound
Description: (c) a bronchoconstriction test involving measuring the inhibition by a test compound of the bronchoconstriction induced in the Konzett-Rossler, anaesthetised guinea-pig model (as modified by Collier and James, Brit. J. Pharmacol., 1967, 30, 283-307) by intravenous administration of the TXA2 mimetic agent, U46619 and involving:
(i) obtaining a cumulative dose-response curve to U46619 induced bronchoconstriction by intravenous administration of constant volumes of increasing concentrations of U46619 (0.2-4 ug/kg) in physiological saline solution and expressing bronchoconstriction as the maximum of that theoretically obtainable with no air flow to the test animal;
(ii) generating a cumulative dose-response curve to U46619 induced bronchoconstriction at 30 minute intervals for 3 hours after oral dosing of test compound; and
(iii) calculating a dose-ratio for the test compound (that is the ratio of concentration of U46619 required to cause 50% bronchoconstriction in the presence and absence of test compound) indicating the potency of TXA2 antagonism.

[5] = test system: U46619 induced hypertension; experiment: Test (d): U46619 induced hypertension in anaesthetised rats; type: in vivo, rat (Alderley Park strain); details: 1 hour after an oral dose of 0.05 mg/kg
Description: (d) Male rats (Alderley Park strain) are anaesthetised with sodium pentobarbital and blood pressure is monitored at the carotid artery. The TXA2 mimetic agent U46619 is administered intravenously at 5 μg/kg via the jugular vein to produce a 20-30 mm Hg (2640-3970 pascal) increase in systolic blood pressure. The procedure is repeated twice to establish reproducibility of the effect. A test compound is then administered either intravenously (via the jugular vein) or orally (via a cannula) directly into the stomach and the animal is challenged with U46619, five minutes after dosing with test compound and then successively every ten minutes until the hypertensive effect of U46619 is no longer blocked.

| Kb [3] [nM] | Structure (SMILES) | TXA2 antagonist properties (TXA2 [1]) | pA2 (TXA2 [2]) | dose ratio [4] | inhibition of U46619 induced hypertension [5] [%] |
| --- | --- | --- | --- | --- | --- |
|  | COc1ccccc1[C@H]1O[C@@H](C(F)(F)F)OC[C@H]1C/C=C\CCC(=O)O (relative stereo) [4(Z)-6-([2,4,5-cis]-4-o-methoxyphenyl-2-trifluoromethyl-1,3-dioxan-5-yl)hexenoic acid] | also possess TXA2 antagonist properties |  |  |  |
|  | O=C(O)CCC/C=C\C[C@@H]1CO[C@H](C(F)(F)F)O[C@@H]1c1ccccc1 (relative stereo) [5(Z)-7-([2,4,5-cis]-4-phenyl-2-trifluoromethyl-1,3-dioxan-5-yl)heptenoic acid, reference compound] | significantly lower TXA2 antagonist properties |  |  |  |
| 13.2 | O=C(O)CC/C=C\C[C@@H]1CO[C@H](C(F)(F)F)O[C@@H]1c1ccccc1O (relative stereo) [compound of formula I, 4(Z)-6-([2,4,5-cis]-4-o-hydroxyphenyl-2-trifluoromethyl-1,3-dioxan-5-yl)hexenoic acid] | unexpectedly superior TXA2 antagonist properties | 7.58±0.05 | > 40 | > 60 |
